Assay results reported in publication PMC6773864, “The functional ClpXP protease of Chlamydia trachomatis requires distinct clpP genes from separate genetic loci” (Scientific Reports, 2019).
*1 amine or outer side, *2 acyl side, *3 side chain or, on linkers, in order; H or OH if unused. Where a SMILES comes first, the peptide text is derived from it. The star is where a group is joined. AMC = Cc1cc(=O)oc2cc(N*)ccc12; Suc = O=C(CCC(=O)[*:2])[*:1]

What was measured:
[1] = molecular target: T1, ctClpP1P2 (Chlamydia trachomatis, UniProt O84712+P38002); experiment: peptidase assay, fluorescence (AMC release); assay type: biochemical; conditions: 100 µM substrate, 3 µM ClpP, no ADEP1, pH 7.6, 32 °C
T1 construct: gene clpP1; full-length, C-terminal Strep-tag on both (kept), expressed in E. coli dAPX-1 (clpP/clpX/clpA deleted), mixed 1:1; hetero-tetradecamer
T1 sequence (P38002 2-192): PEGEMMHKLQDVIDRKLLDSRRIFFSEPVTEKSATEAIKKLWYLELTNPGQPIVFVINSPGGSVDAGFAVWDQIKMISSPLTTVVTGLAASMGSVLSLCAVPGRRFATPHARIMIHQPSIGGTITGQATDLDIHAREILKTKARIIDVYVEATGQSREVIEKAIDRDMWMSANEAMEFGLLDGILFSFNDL
T1 sequence (O84712 whole entry): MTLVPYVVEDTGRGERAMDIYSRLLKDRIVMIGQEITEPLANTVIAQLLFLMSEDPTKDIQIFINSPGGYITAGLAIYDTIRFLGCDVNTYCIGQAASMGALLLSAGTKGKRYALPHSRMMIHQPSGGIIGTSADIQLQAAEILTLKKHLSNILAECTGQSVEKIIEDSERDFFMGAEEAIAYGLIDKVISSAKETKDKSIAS

[2] = molecular target: T1, ctClpP1P2; experiment: Suc-LY-AMC peptidase assay, fluorescence (AMC release); assay type: biochemical; conditions: activator; 15 µM ADEP1, 3 µM ClpP, 100 µM Suc-LY-AMC, no ClpX, pH 7.6, 32 °C; binds preferably via ClpP2 hydrophobic pocket

Molecule	peptidase assay, fluorescence (AMC release) [1]	fold increase in peptidase activity at 15 μM [2]
Cc1cc(=O)oc2cc(NC(=O)[C@H](Cc3ccc(O)cc3)NC(=O)[C@H](CC(C)C)NC(=O)CCC(=O)O)ccc12 [Suc-LY-AMC] (Suc-Leu-Tyr-{AMC})	when combined, ctClpP1P2 steadily hydrolysed Suc-LY-AMC	
ADEP1		> 2.5 fold
